Results as given in publication PMC8070004, “Isorhamnetin Ameliorates Dry Eye Disease via CFTR Activation in Mice” (International Journal of Molecular Sciences, 2021).

Columns and labels:
hERG potassium channel = target: T1, hERG potassium channel (Homo sapiens, UniProt Q12809); assay: FluxOR potassium ion channel assay in HEK293T cells expressing hERG; type: cell-based; conditions: 30 μM pretreated for 10 min
T1 construct: expressed in transfected cells; host or cells: HEK293 / HEK293T
Protocol: HEK293 cells stably expressing human Kv11.1 (hERG) were plated in 96-well plates. After 48 h, the cells were incubated at 28 °C for 4 h to enhance membrane expression of hERG. The culture medium was replaced with 80 μL/well of FluxOR (Invitrogen) loading buffer and incubated for 1 h at 37 °C in the dark. After removal of the loading buffer, 100 µL of assay buffer were added to each well. To measure the effect of isorhamnetin on hERG channels, the cells were pretreated with isorhamnetin for 10 min. FluxOR fluorescence (excitation/emission: 490/525 nm) was recorded for 4 s before addition of 20 μL of stimulus buffer containing thallium ions, and the fluorescence was monitored. FluxOR fluorescence was recorded and analyzed using FLUOstar Omega Microplate Reader (BMG Labtech) and MARS Data Analysis Software (BMG Labtech). All buffers were prepared according to the manufacturer’s instructions.

CD-1 mice = assay: Tear volume by phenol red thread tear test in normal CD-1 mice; type: in vivo, mouse; conditions: single 2.5 μL ocular delivery, 30 µM isorhamnetin
Protocol: Tear volume was measured using phenol red threads (Zone-Quick, Oasis Medical, Glendora, CA, USA) by placing them in the lateral canthi of normal CD-1 or dry eye model-treated BL6 mice for 10 s using forceps. Tear volume was measured using a Vernier caliper as the length of thread wetting under a microscope. For normal CD-1 mice, serial measurements were done to evaluate compound pharmacodynamics compared to the vehicle after topical application of a single, 2.5-μL drop of compound formulations containing 20 μM forskolin, 30 μM isorhamnetin, or 20 μM CFTRinh-172 in PBS with 0.1% DMSO.

intracellular cAMP = assay: cAMP assay in FRT cells; type: cell-based, rat; conditions: 30 µM
Protocol: FRT cells grown on 96-well culture plates were washed three times with PBS at 37 °C and then incubated in induction buffer from a cAMP assay kit (cAMP-Glo Assay; Promega, Madison, WI, USA) at 37 °C containing 100 μM 3-isobutyl-1-methylxanthine (IBMX) for 10 min in the absence or presence of forskolin or isorhamnetin. Cytosolic cAMP was measured using the kit according to the manufacturer’s protocol.

[1] = test system: corneal epithelial (CorE) cells; assay: MTS cell viability assay in CorE cells; type: cell-based, human; conditions: 48 h; isorhamnetin 30 μM, Triton X-100 0.01%
Protocol: Immortalized human CorE [47] and immortalized human ConjE (Innoprot, Bizkaia, Spain) cells were plated on 96-well microplates. After 24 h incubation, cells were treated with 30 μM isorhamnetin or 0.01% Triton X-100 and then they were incubated for two days. An equal amount of DMSO was added to the control. The culture medium and the compounds were changed every 12 h. To assess cell proliferation, after 48 h of incubation with the compound, the cells were reincubated with MTS for 1 h. The soluble formazan produced by cellular reduction of MTS was quantified by measuring the absorbance at 490 nm with Infinite M200 (Tecan, Grödig, Austria) microplate reader. MTS assay was done using CellTiter 96 AQueous One Solution Cell Proliferation Assay kit (Promega, Madison, WI, USA).

human CFTR = target: T2, human CFTR (Homo sapiens, UniProt P13569); assay: YFP quenching assay in CHO-K1 cells expressing CFTR and halide sensor YFP; type: cell-based; conditions: isorhamnetin applied 10 min prior to I- addition
T2 construct: expressed in transfected cells; host or cells: CHO-K1
Protocol: CHO cells expressing wild-type CFTR with the halide sensor YFP-H148Q/I152L were plated in 96-well, black-walled microplates (Corning Inc., Corning, NY, USA) at a density of 2 × 10^4 cells per well. CHO-WT-CFTR-YFP cells were incubated for 48 h at 37 °C. Assays were done using FLUO star Omega microplate reader (BMG Labtech, Ortenberg, Germany) and MARS Data Analysis Software (BMG Labtech). Briefly, each well of a 96-well plate was washed three times in PBS (200 µL/wash). Then, 100 µL PBS was added to each well. Test compounds (1 µL) were added to each well at final concentration of 25 µM. After 10 min, 96-well plates were transferred to the microplate reader preheated to 37 °C for fluorescence assay. Each well was assayed individually for CFTR-mediated I^- influx by recording fluorescence continuously (400 ms per point) for 2 s (baseline). Then, 100 µL of 140 mM I^- solution were added at 2 s and then YFP fluorescence was recorded for 14 s. Initial iodide influx rate was determined from the initial slope of fluorescence decrease, by nonlinear regression, following infusion of iodide.

ENaC = target: T3, ENaC (Homo sapiens, UniProt P37088+P51168+P51170); assay: ENaC short-circuit current in T84 cells; type: cell-based; conditions: 30 μM applied 10 min prior to 100 µM amiloride
T3 construct: endogenous in cells; host or cells: T84 cells (provided by Dr. Min Goo Lee)
Protocol: (§1) Snapwell inserts containing CFTR-expressing FRT and T84 cells were mounted in Ussing chambers (Physiologic Instruments, San Diego, CA, USA). Forskolin, isorhamnetin, and CFTRinh-172 were added to the apical and basolateral bath solution. For FRT cells, the apical bath was filled with a half-Cl^− solution and the basolateral bath was filled with HCO^3--buffered solution to generate transepithelial Cl^− gradient (apical, 64 mM; basolateral, 129 mM), and the basolateral membrane was permeabilized with 250 µg/mL amphotericin B. For T84 cells, symmetrical HCO^3--buffered solutions were used, and ENaC was inhibited with amiloride (100 µM). All cells were bathed for a 20-min stabilization period and aerated with 95% O2/5% CO2 at 37 °C. Apical membrane current and short-circuit current were measured with an EVC4000 Multi-Channel V/I Clamp (World Precision Instruments, Sarasota, FL, USA) and recorded using PowerLab 4/35 (AD Instruments, Castle Hill, Australia). Data were collected and analyzed with ADInstruments acquisition software Labchart Pro 7 software. The sampling rate was 4 Hz.

WT-CFTR = WT-CFTR (Homo sapiens, UniProt P13569); assay: Apical membrane current in WT-CFTR expressing FRT cells; type: cell-based; set-up: expressed in transfected cells; host or cells: FRT (Fisher rat thyroid) cells, provided by Dr. Alan Verkman
Protocol: as §1

CFTR = target: T4, CFTR (Mus musculus, UniProt P26361); assay: Open-circuit ocular surface potential difference (PD) in CD-1 mice; type: in vivo; conditions: 30 μM isorhamnetin, amiloride and low Cl- perfusion
T4 construct: from tissue; host or cells: ocular surface of anesthetized CD-1 mice (in vivo)

WT-CFTR, sequence (P13569 whole entry): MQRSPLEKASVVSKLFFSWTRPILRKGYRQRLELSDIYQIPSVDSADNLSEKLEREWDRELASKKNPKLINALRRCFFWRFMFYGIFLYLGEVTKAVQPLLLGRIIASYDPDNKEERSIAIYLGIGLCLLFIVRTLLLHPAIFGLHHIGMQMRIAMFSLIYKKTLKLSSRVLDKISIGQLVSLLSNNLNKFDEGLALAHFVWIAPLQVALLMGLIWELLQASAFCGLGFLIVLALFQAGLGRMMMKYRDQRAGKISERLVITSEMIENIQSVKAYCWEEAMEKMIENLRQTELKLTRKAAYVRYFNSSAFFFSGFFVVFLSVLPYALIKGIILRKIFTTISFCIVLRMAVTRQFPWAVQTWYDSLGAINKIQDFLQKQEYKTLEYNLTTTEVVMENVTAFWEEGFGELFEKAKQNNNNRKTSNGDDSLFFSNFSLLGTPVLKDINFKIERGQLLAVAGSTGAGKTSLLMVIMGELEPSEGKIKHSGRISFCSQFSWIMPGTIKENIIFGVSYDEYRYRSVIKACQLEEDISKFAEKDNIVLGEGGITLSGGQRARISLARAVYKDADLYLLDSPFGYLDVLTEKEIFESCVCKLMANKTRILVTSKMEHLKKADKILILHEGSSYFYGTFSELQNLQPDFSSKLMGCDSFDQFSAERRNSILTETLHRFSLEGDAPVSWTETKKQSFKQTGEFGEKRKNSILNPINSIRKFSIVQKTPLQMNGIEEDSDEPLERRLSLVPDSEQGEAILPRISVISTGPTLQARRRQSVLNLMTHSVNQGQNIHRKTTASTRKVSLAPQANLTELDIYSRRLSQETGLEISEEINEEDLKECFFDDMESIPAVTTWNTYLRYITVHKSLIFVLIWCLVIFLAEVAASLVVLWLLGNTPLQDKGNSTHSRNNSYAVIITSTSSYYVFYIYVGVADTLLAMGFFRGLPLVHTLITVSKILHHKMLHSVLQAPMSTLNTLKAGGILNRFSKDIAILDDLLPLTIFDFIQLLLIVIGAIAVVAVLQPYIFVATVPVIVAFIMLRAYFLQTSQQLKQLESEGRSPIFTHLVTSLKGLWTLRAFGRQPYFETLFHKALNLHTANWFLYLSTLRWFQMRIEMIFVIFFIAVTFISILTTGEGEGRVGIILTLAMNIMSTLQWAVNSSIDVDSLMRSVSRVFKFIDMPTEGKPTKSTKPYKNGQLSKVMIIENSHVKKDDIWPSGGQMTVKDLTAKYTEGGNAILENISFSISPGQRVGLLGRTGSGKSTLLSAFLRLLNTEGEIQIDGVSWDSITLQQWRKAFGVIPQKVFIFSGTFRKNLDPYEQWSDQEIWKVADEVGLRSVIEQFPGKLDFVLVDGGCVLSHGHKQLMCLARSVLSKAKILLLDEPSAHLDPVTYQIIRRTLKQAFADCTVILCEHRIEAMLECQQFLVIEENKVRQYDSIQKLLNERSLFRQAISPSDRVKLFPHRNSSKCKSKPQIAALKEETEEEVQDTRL
T1 sequence (Q12809 whole entry): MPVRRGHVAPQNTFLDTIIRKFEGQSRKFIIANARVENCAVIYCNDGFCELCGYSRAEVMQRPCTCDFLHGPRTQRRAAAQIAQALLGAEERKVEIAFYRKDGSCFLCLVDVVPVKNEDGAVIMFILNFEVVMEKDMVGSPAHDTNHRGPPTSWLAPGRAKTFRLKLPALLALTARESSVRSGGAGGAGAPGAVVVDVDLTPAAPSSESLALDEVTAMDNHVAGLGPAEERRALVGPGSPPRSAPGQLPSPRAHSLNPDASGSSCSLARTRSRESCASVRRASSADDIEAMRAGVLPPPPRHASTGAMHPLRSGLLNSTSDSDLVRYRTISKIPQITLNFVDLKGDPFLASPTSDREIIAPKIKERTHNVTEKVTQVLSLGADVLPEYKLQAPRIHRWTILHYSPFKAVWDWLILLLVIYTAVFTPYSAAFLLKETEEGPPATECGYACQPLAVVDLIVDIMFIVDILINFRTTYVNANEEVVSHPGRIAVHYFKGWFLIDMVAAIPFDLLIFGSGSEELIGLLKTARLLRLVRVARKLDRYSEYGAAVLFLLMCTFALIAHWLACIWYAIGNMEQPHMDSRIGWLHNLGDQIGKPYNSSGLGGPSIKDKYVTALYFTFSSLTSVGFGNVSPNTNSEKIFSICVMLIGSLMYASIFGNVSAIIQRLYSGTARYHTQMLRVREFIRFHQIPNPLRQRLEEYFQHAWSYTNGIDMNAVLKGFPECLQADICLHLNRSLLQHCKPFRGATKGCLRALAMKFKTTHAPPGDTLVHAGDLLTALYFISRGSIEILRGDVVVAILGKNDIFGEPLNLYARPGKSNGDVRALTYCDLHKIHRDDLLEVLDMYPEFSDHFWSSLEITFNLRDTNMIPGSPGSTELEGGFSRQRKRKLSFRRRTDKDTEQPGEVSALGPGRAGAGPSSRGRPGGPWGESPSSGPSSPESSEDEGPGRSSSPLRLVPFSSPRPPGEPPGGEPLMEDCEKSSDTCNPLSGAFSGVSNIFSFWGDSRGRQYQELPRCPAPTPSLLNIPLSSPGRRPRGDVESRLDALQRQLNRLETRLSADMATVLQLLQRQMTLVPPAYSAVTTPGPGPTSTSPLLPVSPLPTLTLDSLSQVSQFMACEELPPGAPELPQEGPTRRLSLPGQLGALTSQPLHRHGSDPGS
T3 sequence (P51168 whole entry): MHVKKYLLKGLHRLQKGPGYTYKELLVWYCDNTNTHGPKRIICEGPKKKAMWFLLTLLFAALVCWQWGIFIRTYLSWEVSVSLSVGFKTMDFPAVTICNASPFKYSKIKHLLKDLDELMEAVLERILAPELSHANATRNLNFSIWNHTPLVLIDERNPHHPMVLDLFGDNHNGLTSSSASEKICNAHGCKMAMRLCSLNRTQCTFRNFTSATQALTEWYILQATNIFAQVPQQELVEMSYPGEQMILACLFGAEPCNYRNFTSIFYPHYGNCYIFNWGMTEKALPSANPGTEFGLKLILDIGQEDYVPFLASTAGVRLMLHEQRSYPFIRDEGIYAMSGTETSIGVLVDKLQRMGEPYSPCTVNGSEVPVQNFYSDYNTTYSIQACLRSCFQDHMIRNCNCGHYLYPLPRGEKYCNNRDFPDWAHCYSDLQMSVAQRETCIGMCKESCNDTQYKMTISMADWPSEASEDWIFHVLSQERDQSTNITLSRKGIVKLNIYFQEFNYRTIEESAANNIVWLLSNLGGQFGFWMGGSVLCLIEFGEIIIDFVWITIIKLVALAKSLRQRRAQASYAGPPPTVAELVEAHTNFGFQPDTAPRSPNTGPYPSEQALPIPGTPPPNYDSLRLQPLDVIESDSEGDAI
T3 sequence (P37088 whole entry): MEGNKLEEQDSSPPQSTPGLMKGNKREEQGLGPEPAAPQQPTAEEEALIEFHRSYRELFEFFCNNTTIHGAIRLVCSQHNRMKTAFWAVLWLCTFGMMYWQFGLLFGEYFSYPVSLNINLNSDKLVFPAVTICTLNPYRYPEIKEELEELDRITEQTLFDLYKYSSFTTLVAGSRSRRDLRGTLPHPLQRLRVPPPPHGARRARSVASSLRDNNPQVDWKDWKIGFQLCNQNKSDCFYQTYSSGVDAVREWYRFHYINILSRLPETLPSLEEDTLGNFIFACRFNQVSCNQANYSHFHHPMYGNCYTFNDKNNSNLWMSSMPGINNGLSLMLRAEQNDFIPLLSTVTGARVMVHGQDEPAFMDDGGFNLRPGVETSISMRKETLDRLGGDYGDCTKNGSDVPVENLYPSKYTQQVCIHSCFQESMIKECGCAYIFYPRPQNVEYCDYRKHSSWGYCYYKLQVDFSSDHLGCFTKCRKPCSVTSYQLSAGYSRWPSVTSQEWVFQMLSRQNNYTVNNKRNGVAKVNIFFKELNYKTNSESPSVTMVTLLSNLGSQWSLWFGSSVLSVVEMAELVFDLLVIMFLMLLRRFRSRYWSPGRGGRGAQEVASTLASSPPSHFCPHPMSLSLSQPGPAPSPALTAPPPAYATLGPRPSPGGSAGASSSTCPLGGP
T3 sequence (P51170 whole entry): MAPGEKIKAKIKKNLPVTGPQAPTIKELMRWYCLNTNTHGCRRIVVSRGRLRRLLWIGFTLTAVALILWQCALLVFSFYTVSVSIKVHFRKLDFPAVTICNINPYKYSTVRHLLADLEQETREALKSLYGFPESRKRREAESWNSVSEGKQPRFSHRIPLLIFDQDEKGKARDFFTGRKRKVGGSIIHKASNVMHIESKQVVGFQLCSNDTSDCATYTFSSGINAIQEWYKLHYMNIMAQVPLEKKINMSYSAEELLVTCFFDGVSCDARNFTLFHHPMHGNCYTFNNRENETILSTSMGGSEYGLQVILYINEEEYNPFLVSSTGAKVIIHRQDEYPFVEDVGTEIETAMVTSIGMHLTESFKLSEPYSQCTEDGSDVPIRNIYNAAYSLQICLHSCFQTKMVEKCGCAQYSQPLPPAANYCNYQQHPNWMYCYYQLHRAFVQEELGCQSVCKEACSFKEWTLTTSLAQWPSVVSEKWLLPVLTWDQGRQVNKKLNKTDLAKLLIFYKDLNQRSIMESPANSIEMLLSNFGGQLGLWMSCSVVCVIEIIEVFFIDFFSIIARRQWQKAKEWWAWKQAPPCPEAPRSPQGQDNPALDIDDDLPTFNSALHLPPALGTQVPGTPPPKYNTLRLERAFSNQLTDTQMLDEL
T2 sequence (P13569 whole entry): as the sequence (P13569 whole entry) above

## COc1cc(-c2oc3cc(O)cc(O)c3c(=O)c2O)ccc1O [isorhamnetin]
hERG potassium channel
  hERG channel activity: did not affect
CD-1 mice
  tear volume: significantly increased
Intracellular cAMP
  intracellular cAMP levels: did not alter
[1]
  cell viability (MTS), CorE cells: did not affect the cell viability
Human CFTR
  CFTR chloride channel activity (YFP quenching): significantly increased
ENaC
  ENaC function (short-circuit current): did not alter
WT-CFTR
  EC50: 6.6 ± 1.1 µM
WT-CFTR; 30 μM, current not further increased by 20 μM forskolin
  CFTR activation (apical membrane current): fully activated
CFTR
  ocular surface PD: significantly hyperpolarized
